# Measurements published in patent US4874882A, “Process for preparing monosodium phosphoenolpyruvate” (Ube Industries, Ltd., priority 1986, dated 1989).
# Legend:
# [1] = tested on: ischemic kidney of rabbit; assay: Effect on ischemic kidney of rabbit (BUN and creatinine value in blood, recovery of renal function); assay type: in vivo, male Japanese white-strain rabbits
# From the text: The animals used in this experiment were 10 male Japanese white-strain rabbits, and were grouped into a group of 5 rabbits to which the injection of monosodium phosphoenolpyruvate (hereinafter simply called "PEP·Na") prepared in Example 4 should be administered and a group of 5 rabbits to which a physiological saline should be administered,to carry out experiments as follows:
# To each of the rabbits used in this experiment, a 1% aqueous solution of pentobarbital sodium was intravenously injected in an amount of 3 ml/kg (b.w.) to apply general anesthesia, and a median incision of its venter was carried out to extirpate the right kidney. Subsequently, the left kidney was exposed to infiltrate xylocaine into the surrounding portion of the renal pelvis, and the left renal artery was blocked while handling the kidney with tender care. More specifically, the blood flow of the renal artery was blocked for 60 minutes, and then released for 10 minutes, followed by blocking for more 60 minutes, to perform ischemia for 120 minutes in total. Thereafter, blocking was released for reperfusion. During these procedures, to the rabbits belonging to the PEP·Na group, PEP·Na was intravenously administered in the form of an injection prepared in Example, with a dose of 10 mg/kg (b.w.) every time immediately before release of the first and the second blocking, and, also after release of the blocking, PEP·Na was similarly administered with a dose of 10 mg/kg (b.w.) once a day. On the other hand, to the rabbits belonging to the control group, a physiological saline was intravenously administered in an amount of 1 ml/kg (b.w.) every time immediately before release of the first and the second blocking, and, also after release of the blocking, the physiological saline was similarly administered in an amount of 1 ml/kg (b.w.) once a day, every day.
# Next, blood urea nitrogen (hereinafter "BUN") and creatinine value which are standards to know the morbidity of a kidney were assayed with time to make an index showing the recovery rate of renal function. Results obtained are shown in Table 1 and Table 2 and also in FIG. 1 and FIG. 2.
# [2] = tested on: ischemic kidney of beagle; assay: Effect on ischemic kidney of beagle (BUN and creatinine value, recovery of renal function); assay type: in vivo, male beagles
# Experimental: The animals used in this experiment were 6 male beagles, and were grouped into a group of 3 beagles to which the injection of PEP·Na prepared in Example should be administered and a group of 3 beagles to which a physiological saline should be administered, to carry out experiments as follows in the same manner as in Test Example 1.
# To each of the beagles, a 5% aqueous solution of pentobarbital sodium was intravenously injected in an amount of 0.5 ml/kg (b.w.) to apply general anesthesia, and a median incision of its venter was carried out to extirpate the right kidney. Subsequently, the left kidney was exposed to infiltrate xylocaine into the surrounding portion of the renal pelvis, and the blood flow of the left renal artery was blocked for 90 minutes while handling the kidney with tender care. Thereafter, blocking was released for reperfusion. To the beagles belonging to the PEP·Na administered group, PEP·Na was intravenously administered in the form of an injection prepared in Example, with a dose of 100 mg/kg (b.w.) every time immediately after release of blocking, and, also, thereafter, PEP·Na was similarly administered with a dose of 100 mg/kg (b.w.) once a day every day. On the other hand, to the beagles belonging to the control group, physiological saline was intravenously administered in an amount of 10 ml/kg (b.w.) every time immediately after release of blocking, and, also thereafter, physiological saline was similarly administered in an amount of 10 ml/kg (b.w.) once a day.
# Next, BUN and creatinine value were assayed with time to make an index showing the recovery rate of renal function. Results obtained are shown in Table 3 and Table 4 and also in FIG. 3 and FIG. 4.
# [3] = Acute toxicity (LD50) to beagle; assay type: in vivo; conditions: dog, in vivo, beagle
# Experimental: (§1) Acute toxicity (LD50) in the case where monosodium phosphoenolpyruvate monohydrate was administered to a beagle was examined.
# beagle = assay: Acute toxicity (LD50) to beagle; assay type: in vivo; conditions: conclusion from LD50 in beagle
# Experimental: as §1
# [4] = after 1 day, 10 mg/kg i.v. before each release of blocking, then once a day
# [5] = after 2 days, 10 mg/kg i.v. before each release of blocking, then once a day
# [6] = after 3 days, 10 mg/kg i.v. before each release of blocking, then once a day
# [7] = after 4 days, 10 mg/kg i.v. before each release of blocking, then once a day
# [8] = after 5 days, 10 mg/kg i.v. before each release of blocking, then once a day
# [9] = immediately before blocking (baseline)
# [10] = rabbits, 1 day (24 hours) after release of blocking
# [11] = rabbits, after day 1, over a period of 4 days, vs control group
# [12] = after 1 day, 100 mg/kg i.v. immediately after release of blocking, then once a day
# [13] = after 2 days, 100 mg/kg i.v. immediately after release of blocking, then once a day
# [14] = after 3 days, 100 mg/kg i.v. immediately after release of blocking, then once a day
# [15] = after 4 days, 100 mg/kg i.v. immediately after release of blocking, then once a day
smiles,measurement,setting,value
"C=C(OP(=O)(O)O)C(=O)O [PEP.Na, monosodium phosphoenolpyruvate monohydrate]",BUN of rabbits in PEP.Na-administered group,[1]; [4],54.2 ± 2.2 mg/dL
same,Creatinine value of rabbits in PEP.Na-administered group,[1]; [4],2.83 ± 0.74 mg/dL
same,BUN of rabbits in PEP.Na-administered group,[1]; [5],58.0 ± 15.2 mg/dL
same,Creatinine value of rabbits in PEP.Na-administered group,[1]; [5],2.61 ± 0.87 mg/dL
same,BUN of rabbits in PEP.Na-administered group,[1]; [6],44.1 ± 10.5 mg/dL
same,Creatinine value of rabbits in PEP.Na-administered group,[1]; [6],2.06 ± 0.72 mg/dL
same,BUN of rabbits in PEP.Na-administered group,[1]; [7],35.5 ± 11.0 mg/dL
same,Creatinine value of rabbits in PEP.Na-administered group,[1]; [7],1.73 ± 0.40 mg/dL
same,BUN of rabbits in PEP.Na-administered group,[1]; [8],15.0 ± 5.8 mg/dL
same,Creatinine value of rabbits in PEP.Na-administered group,[1]; [8],1.19 ± 0.17 mg/dL
same,Creatinine value of rabbits in PEP.Na-administered group,[1]; [9],1.18 ± 0.06 mg/dL
same,BUN of rabbits in PEP.Na-administered group,"[1]; immediately before blocking (baseline), mean ± spread",14.5 ± 1.3 mg/dL
same,recovery of renal function,[1]; rabbit,apparently effective for the recovery of renal function
same,BUN compared with control group,[1]; [10],significantly lower value of BUN
same,creatinine compared with control group,[1]; [10],significantly lower value of creatinine
same,time course of BUN,[1]; [11],gradually decreases thereafter over a period of 4 days and gets back to the value given before blocking earlier than in control group
same,time course of creatinine,[1]; [11],gradually decreases thereafter over a period of 4 days and gets back to the value before blocking earlier than in control group
same,BUN of beagles in PEP.Na-administered group,[2]; [12],46 ± 8.3 mg/dL
same,Creatinine value of beagles in PEP.Na-administered group,[2]; [12],3.0 ± 0.45 mg/dL
same,BUN of beagles in PEP.Na-administered group,[2]; [13],63 ± 10.1 mg/dL
same,Creatinine value of beagles in PEP.Na-administered group,[2]; [13],2.9 ± 0.41 mg/dL
same,BUN of beagles in PEP.Na-administered group,[2]; [14],52 ± 9.6 mg/dL
same,Creatinine value of beagles in PEP.Na-administered group,[2]; [14],2.5 ± 0.33 mg/dL
same,BUN of beagles in PEP.Na-administered group,[2]; [15],44 ± 9.2 mg/dL
same,Creatinine value of beagles in PEP.Na-administered group,[2]; [15],2.0 ± 0.31 mg/dL
same,recovery of renal function,[2]; beagle,apparently effective for the recovery of renal function
same,BUN compared with control group,"[2]; beagles, 1 day (24 hours) after release of blocking",significantly lower value of BUN
same,creatinine value compared with control group,"[2]; beagles, 1 day after release of blocking",significantly lower value of creatinine value
same,time course of creatinine value,"[2]; beagles, after day 1, over a period of 3 days",gradually decreases thereafter over a period of 3 days
same,time course of BUN,"[2]; beagles, after release of blocking","reaches to a maximum after 2 days, but thereafter gradually decreases"
same,BUN of beagles in PEP.Na-administered group,[2]; [9],15 ± 0.5 mg/dL
same,Creatinine value of beagles in PEP.Na-administered group,[2]; [9],0.8 ± 0.23 mg/dL
same,LD50,[3]; intravenous,≥ 1000 mg/kg
same,LD50,[3]; oral,≥ 3000 mg/kg
same,safety to a living body,beagle,very safe substance
